Data set [1] has as its system retinal ganglion cells. Put plainly: In vivo model of glaucoma: pattern electroretinogram (PERG). As to conditions: p<0.05 (FIGS. 9A and 9B). The text has this:
FIGS. 9A and 9B depict quantification of electrical activity in retinal ganglion cells in an in vivo model of glaucoma in the presence or absence of sigma-2 receptor modulator.
(§1) In vivo models of glaucoma (Shah, M., et al., “Translational Preclinical Pharmacologic Disease Models for Opthalmic Drug Development,” Development. Pharm. Res. 36(4): 58 (2019); which is hereby incorporated by reference in its entirety) were used to test the utility of sigma-2 receptor modulators.
Glaucoma can cause perturbations in the electrical activity of the retina. To measure the electrical activity, a pattern electroretinogram (PERG) measure electrical activity of the retina in response to a test stimulus, such as a reversing checkerboard. PERG is a noninvasive, direct, and objective method to assess retinal ganglion cell function. An in vivo model of glaucoma causes a functional deficit in retinal ganglion cells (injured vs. naïve), resembling what is seen in patients with glaucoma and other retinal diseases.

Data set [2] has as its system RPE cell cultures. Put plainly: Autophagy assays: POS trafficking, colocalization of POS with LC3B. The class given is cell-based. On the procedure:
FIGS. 2A and 2B depict photoreceptor outer segment trafficking after treatment with Abeta oligomers in the presence or absence of sigma 2 receptor modulators (FIG. 2A=Compound A and Compound C; FIG. 2B=Compound B).
FIGS. 3A and 3B depict photoreceptor outer segment trafficking after treatment with an oxidative stressor in the presence or absence of sigma 2 receptor modulators (FIG. 3A=Compound A and Compound C; FIG. 3B=Compound B).
Autophagy Assays: Autophagy assays were performed in accordance with Klionsky et al., “Guidelines for the Use and Interpretation of Assays for Monitoring Autophagy,” (4th edition) Autophagy 2021; 17:1-382, which is hereby incorporated by reference in its entirety. RPE cultures were treated with human oligomeric Aβ in either the presence or absence of compounds of the invention. POS trafficking was measured over time after the addition of POS to RPE cell cultures. Stressors included addition of Aβ oligomers or H2O2 for 12 to 48 hours. […] This process was disrupted by addition of stressors such as Aβ oligomers (FIGS. 2A and 2B) or oxidative stress (FIGS. 3A and 3B).

In data set [3] the test system is RPE cell cultures. Put plainly: Quantification of an autophagy related protein after oxidative stressor. Format: cell-based. The following applies: after oxidative stressor (FIG. 4). The text has this:
FIG. 4 depicts quantification of an autophagy-related protein after oxidative stress by an oxidative stressor in the presence or absence of sigma-2 receptor modulators.
Oxidative stressors are associated with pathology in AMD with changes seen in autophagy associated proteins. Application of an oxidative stressor caused increased expression of an autophagy related protein acutely (FIG. 4).

Data set [4] concerns the target T1, sigma-2 receptors (Mus musculus, UniProt Q8VD00).
T1 sequence (Q8VD00 1-176): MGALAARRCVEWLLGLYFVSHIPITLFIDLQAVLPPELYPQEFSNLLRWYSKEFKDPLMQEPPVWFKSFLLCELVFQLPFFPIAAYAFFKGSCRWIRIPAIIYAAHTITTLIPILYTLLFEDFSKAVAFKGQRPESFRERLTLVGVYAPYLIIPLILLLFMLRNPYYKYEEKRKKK
Put plainly: Drug concentration in plasma, brain and retina. Format: in vivo. On the procedure:
FIG. 6 depicts quantification of the concentration of the sigma-2 receptor modulator Compound A in mouse plasma, brain, and retina.
FIG. 7 depicts quantification of the concentration of the sigma-2 receptor modulator, Compound B, in mouse plasma, brain and retina.
Following a single oral administration of [14C]-Compound A to a rat, autoradiography was performed to determine tissue distribution. […] Receptor occupancy exceeding 80% confers efficacy in vivo. Drug concentration in the brain (cerebellum), retina, and plasma were also measured. […] Similarly, following a single orally administered dose, Compound B was found in concentrations that exceeded 80% receptor occupancy at sigma-2 receptors in the retina and plasma and approximately 50% occupancy in the brain (FIG. 7).

Data set [5] concerns retinal ganglion cells. Put plainly: In vivo model of glaucoma: retinal ganglion cell counts. As to conditions: p<0.05 (FIG. 8).
From the text: FIG. 8 depicts quantification of retinal ganglion cell density in an in vivo model of glaucoma in the presence or absence of sigma-2 receptor modulator.
as §1
To test whether sigma-2 receptor modulators can rescue cell death, in vivo models were used to cause cell death of retinal ganglion cells, resembling what is seen in patients with glaucoma and other retinal diseases.

The mark [6] stands for this setting: oxidative stress, H2O2 (FIGS. 3A and 3B).
[7] abbreviates: stressor Aβ oligomers (FIGS. 2A and 2B).

Take `CC(C)(C)Oc1cc(CCC(C)(C)N2Cc3ccc(S(C)(=O)=O)cc3C2)ccc1O` [Compound A]: the “retinal ganglion cell function (PERG electrical activity)” value in data set [1] is listed as “preserves retinal ganglion cell function”. Also, the “POS trafficking into autophagosomes (colocalization of POS with LC3B)” value in data set [2] (setting [6]) and in data set [2] (setting [7]) was “restored normal trafficking into autophagosomes after stress” each time. Moreover, in data set [3], the “expression of an autophagy related protein” value is listed as “prevented the increase in this autophagy related protein”. The “concentration in the retina relative to brain (cerebellum) and plasma” value in data set [4] (mouse (FIG. 6)) is listed as “higher than the concentration in the brain or plasma”.

Regarding `CC1(O)CCN(CCC(C)(C)c2ccc(C(F)(F)F)cc2)CC1` [Compound B], the “retinal ganglion cell counts” value in data set [5] is reported as “significantly preserved retinal ganglion cells counts”. For the same compound, in data set [4] (mouse (FIG. 7), single orally administered dose), the “occupancy at sigma-2 receptors in the brain” value was “approximately 50%”.

`CC(C)=C[C@@H](CC(C)(C)c1ccc(C(F)(F)F)cc1)N1CCC(C2CCOCC2)CC1` [Compound C]: the “POS trafficking into autophagosomes (colocalization of POS with LC3B)” value in data set [2] (setting [6]) and in data set [2] (setting [7]) was “restored normal trafficking into autophagosomes after stress” in each case. Also, the “expression of an autophagy related protein” value in data set [3] is reported as “prevented the increase in this autophagy related protein”.
